{"source": "patent US20250340568A1", "about": "“SOLID FORMS OF A MACROCYCLIC COMPOUNDS AS CFTR MODULATORS AND THEIR PREPARATION” (Vertex Pharmaceuticals Incorporated, priority 2022, published 2025)", "target": "T1, CFTR (F508del/MF-HBE cells) (Homo sapiens, UniProt P13569, DEL508-508)", "T1 construct": "human bronchial epithelial (HBE) cells derived from CF subjects heterozygous for F508del and a minimal function CFTR mutation; endogenous in cells; host or cells: primary human bronchial epithelial cells from CF subjects (F508del/MF genotype), differentiated at air-liquid interface", "T1 sequence (P13569 with tags, fused parts or gaps DEL508-508)": "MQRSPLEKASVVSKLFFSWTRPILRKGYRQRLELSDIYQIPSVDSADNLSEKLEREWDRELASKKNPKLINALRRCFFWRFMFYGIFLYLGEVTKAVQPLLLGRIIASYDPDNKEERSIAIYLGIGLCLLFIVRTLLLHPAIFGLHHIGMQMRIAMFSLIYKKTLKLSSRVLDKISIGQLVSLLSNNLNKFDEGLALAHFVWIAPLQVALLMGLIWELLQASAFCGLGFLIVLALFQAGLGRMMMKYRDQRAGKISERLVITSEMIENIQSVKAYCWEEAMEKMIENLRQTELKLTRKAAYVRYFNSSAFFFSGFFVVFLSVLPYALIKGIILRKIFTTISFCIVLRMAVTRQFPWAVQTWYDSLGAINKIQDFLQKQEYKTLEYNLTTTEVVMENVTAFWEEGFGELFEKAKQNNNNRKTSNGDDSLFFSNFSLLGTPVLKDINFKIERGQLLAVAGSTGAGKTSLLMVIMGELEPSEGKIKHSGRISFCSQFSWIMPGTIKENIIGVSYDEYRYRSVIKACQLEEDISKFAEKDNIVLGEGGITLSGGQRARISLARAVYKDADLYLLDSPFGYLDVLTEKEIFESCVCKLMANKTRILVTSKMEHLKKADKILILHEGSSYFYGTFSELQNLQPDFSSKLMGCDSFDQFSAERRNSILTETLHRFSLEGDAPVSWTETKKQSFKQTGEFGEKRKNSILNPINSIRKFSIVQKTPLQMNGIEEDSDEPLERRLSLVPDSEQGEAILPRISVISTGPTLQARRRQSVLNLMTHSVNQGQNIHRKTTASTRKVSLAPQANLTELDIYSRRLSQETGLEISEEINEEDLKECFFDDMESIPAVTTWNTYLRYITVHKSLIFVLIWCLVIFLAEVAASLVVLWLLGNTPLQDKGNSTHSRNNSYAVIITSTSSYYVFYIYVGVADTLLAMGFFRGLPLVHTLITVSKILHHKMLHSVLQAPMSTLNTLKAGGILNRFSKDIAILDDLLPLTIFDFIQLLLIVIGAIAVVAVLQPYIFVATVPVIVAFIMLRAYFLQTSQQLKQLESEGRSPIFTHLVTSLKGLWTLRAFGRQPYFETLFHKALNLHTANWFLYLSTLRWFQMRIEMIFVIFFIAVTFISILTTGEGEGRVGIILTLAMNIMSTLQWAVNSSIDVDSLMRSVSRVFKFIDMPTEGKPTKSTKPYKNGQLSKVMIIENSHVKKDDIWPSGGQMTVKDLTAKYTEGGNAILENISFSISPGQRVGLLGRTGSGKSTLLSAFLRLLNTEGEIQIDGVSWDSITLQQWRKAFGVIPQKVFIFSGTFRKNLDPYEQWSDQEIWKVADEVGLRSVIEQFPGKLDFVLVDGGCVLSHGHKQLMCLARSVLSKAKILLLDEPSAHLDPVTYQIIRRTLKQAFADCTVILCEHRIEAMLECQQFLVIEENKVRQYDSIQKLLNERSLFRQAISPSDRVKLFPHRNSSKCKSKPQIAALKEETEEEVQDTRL", "assay": "Ussing chamber assay of CFTR-mediated short-circuit currents (potentiator identification)", "type": "cell-based", "conditions": "incubated 18-24 hours at 37° C. with 10 μM (14S)-8-[3-(2-{dispiro[2.0.2.1]heptan-7-yl}ethoxy)-1H-pyrazol-1-yl]-... trione (Compound VII), 20% human serum, read-out: CFTR-modulating activity EC50", "procedure": "Ussing Chamber Assay of CFTR-mediated short-circuit currents\nUssing chamber experiments were performed using human bronchial epithelial (HBE) cells derived from CF subjects heterozygous for F508del and a minimal function CFTR mutation (F508del/MF-HBE) and cultured as previously described (Neuberger T, Burton B, Clark H, Van Goor F Methods Mol Biol 2011:741:39-54). After four days the apical media was removed, and the cells were grown at an air liquid interface for >14 days prior to use.\nTo isolate the CFTR-mediated short-circuit (ISC) current, F508del/MF-HBE grown on Costar® Snapwell™ cell culture inserts were mounted in an Ussing chamber and the transepithelial ISC was measured under voltage-clamp recording conditions (Vhold=0 mV) at 37° C. The basolateral solution contained (in mM) 145 NaCl, 0.83 K2HPO4, 3.3 KH2PO4, 1.2 MgCl2, 1.2 CaCl2), 10 Glucose, 10 HEPES (pH adjusted to 7.4 with NaOH) and the apical solution contained (in mM) 145 NaGluconate, 1.2 MgCl2, 1.2 CaCl2), 10 glucose, 10 HEPES (pH adjusted to 7.4 with NaOH) and 30 μM amiloride to block the epithelial sodium channel. […] The CFTR-mediated ISC (μA/cm^2) for each condition was determined from the peak forskolin response to the steady-state current following inhibition.\nThe activity of the CFTR potentiator compounds on the CFTR-mediated ISC was determined in Ussing chamber studies as described above. […]", "data": [{"compound": "CC1(C)CCCCC[C@](O)(C(F)(F)F)C2=NN=C(O2)c2nc(c(C(F)(F)F)cc2N)N1", "note": "[Compound I, (6R)-17-amino-12,12-dimethyl-6,15-bis(trifluoromethyl)-19-oxa-3,4,13,18-tetrazatricyclo[12.3.1.12,5]nonadeca-1(18),2,4,14,16-pentaen-6-ol]", "values": [{"measurement": "EC50", "value": "< 500", "unit": "nM"}]}]}
